# B1: human TRPC5 residues 1-764 (hTRPC5_(1-764)), purified tetrameric channel (domain or fragment, UniProt Q9UL62 1-764, looked up)
# chain: MAQLYYKKVNYSPYRDRIPLQIVRAETELSAEEKAFLNAVEKGDYATVKQALQEAEIYYNVNINCMDPLGRSALLIAIENENLEIMELLLNHSVYVGDALLYAIRKEVVGAVELLLSYRRPSGEKQVPTLMMDTQFSEFTPDITPIMLAAHTNNYEIIKLLVQKRVTIPRPHQIRCNCVECVSSSEVDSLRHSRSRLNIYKALASPSLIALSSEDPILTAFRLGWELKELSKVENEFKAEYEELSQQCKLFAKDLLDQARSSRELEIILNHRDDHSEELDPQKYHDLAKLKVAIKYHQKEFVAQPNCQQLLATLWYDGFPGWRRKHWVVKLLTCMTIGFLFPMLSIAYLISPRSNLGLFIKKPFIKFICHTASYLTFLFMLLLASQHIVRTDLHVQGPPPTVVEWMILPWVLGFIWGEIKEMWDGGFTEYIHDWWNLMDFAMNSLYLATISLKIVAYVKYNGSRPREEWEMWHPTLIAEALFAISNILSSLRLISLFTANSHLGPLQISLGRMLLDILKFLFIYCLVLLAFANGLNQLYFYYETRAIDEPNNCKGIRCEKQNNAFSTLFETLQSLFWSVFGLLNLYVTNVKARHEFTEFVGATMFGTYNVISLVVLLNMLIAMMNNSYQLIADHADIEWKFARTKLWMSYFDEGGTLPPPFNIIPSPKSFLYLGNWFNNTFCPKRDPDGRRRRRNLRSFTERNADSLIQNQHYQEVIRNLVKRYVAAMIRNSKTHEGLTEENFKELKQDISSFRYEVLDLLGNR
# notes: human TRPC5 (transient receptor potential canonical 5), C-terminally truncated construct, residues 1-764; That this removes the GFP-MBP tag is surmised; also called apo hTRPC5; source: HEK293F, BacMam baculovirus infection, purified (MBP resin, H3C protease digestion, Superose-6 Increase SEC in GDN); not shown: GFP, N-terminal, cleaved; MBP, N-terminal, cleaved
# B2: GFP-MBP-tagged human TRPC5 residues 1-764 (hTRPC5_(1-764)) as screened by FSEC (domain or fragment, UniProt Q9UL62 1-764, looked up)
# chain: B1 chain
# notes: human TRPC5 (transient receptor potential canonical 5), C-terminally truncated construct, residues 1-764; Same construct as m1, but uncleaved and unpurified; It is detected by the fluorescence of its GFP tag in FSEC; source: HEK293F, transfected (PEI), solubilised in LMNG/CHS, in supernatant; not shown: GFP, N-terminal, kept; MBP, N-terminal, kept
# Tests used:
# TRPC5 [1] = test system: TRPC5; design: method as in Richter et al., 2014; Zhou et al., 2017; Zhu et al., 2015; details: ref Richter et al., 2014; Zhou et al., 2017; Zhu et al., 2015; read-out: IC50 for inhibition of TRPC5; cited from earlier work
# TRPC5 [2] = test system: TRPC5; design: method as in Minard et al., 2019; details: ref Minard et al., 2019; read-out: EC50 as TRPC5 activator; cited from earlier work
# [3] = target: the molecule itself; test: cryo-EM structure; purified hTRPC5(1-764) in GDN micelles with 100 uM Ca2+ plus 500 uM CMZ, 50 uM HC-070 or EA (EA not seen, 'apo'); graphene oxide grids; C4 symmetry imposed in refinement
# [4] = target: the molecule itself; test: SEC; fluorescence-detection SEC (FSEC) of transfected HEK293F cells solubilised in 1% LMNG, 0.1% CHS in TBS (20 mM Tris-HCl pH 8.0, 150 mM NaCl), 4°C; Superose-6 Increase
molecule,measurement,setting,value
c1ccc(Cn2c(NCc3ccco3)nc3ccccc32)cc1 [AC1903],IC50,TRPC5 [1],14.7 µM
Cn1c(=O)n(CCCO)c(=O)c2c1nc(Oc1ccc(Cl)c(OC(F)(F)F)c1)n2Cc1ccc(Cl)cc1 [AM237],EC50,TRPC5 [2],0.015 to 0.02 µM
B1,stoichiometry N,[3],4
B2,stoichiometry N,[4],4

# — publication PMC7987348, “Structural basis for human TRPC5 channel inhibition by two distinct inhibitors” (eLife, 2021)
